Measurements taken from US11969431B2, “Formulations for treatment of post-traumatic stress disorder” (Glytech LLC, priority 2017, dated 2024).
“Also recorded” adds a separate entry of the source.

Legend:
mice = experiment: Marble burying test; type: in vivo; details: for Effects on marble burying relative to racemic mirtazapine: Example 4, FIG. 2
[1] = Pharmacokinetics of D-cycloserine in humans after 500 mg (Zhu et al. 2001); type: in vivo; details: corresponding to AUC over 24 hr
Text: Critical parameters include maximum (peak) concentration achieved (Cmax), time to maximum concentration (Tmax) and area under the curve (AUC) during the dosing interval.

[2] = Pharmacokinetics of 250 mg PO D-cycloserine every 12 hrs in healthy volunteers (Park et al. 2015); type: in vivo, humans; details: 250 mg PO every 12 hrs; corresponding to AUC over 12 hrs
C57BL/6J mice = experiment: Open field (OF) test, locomotor activity; details: for Locomotor activity vs. vehicle: 30 min after administration; for Locomotor activity, Mean distance travelled over 30 min: C57BL/6J mice
Wistar-Kyoto (WKY) rats = experiment: Cued fear conditioning / extinction training, freezing behavior in WKY rats; type: in vivo, rat; details: for Freezing behavior, direction of change vs. vehicle: WKY rats, across days 1 and 3
Text: Inbred Wistar-Kyoto (WKY) rats have been used as models of several behavioral deficits, such as stress vulnerability and sleep disturbance.
Fear memories are crucial in psychiatric conditions such as PTSD. Pavlovian fear conditioning (FC) test is a widely-used behavioral assay in rodents for measurement of aversive learning and memory through learned associations between aversive stimulus (a mild electric shock) and a specific cue (e.g., a tone; cued conditioning) or a context in which electric shock had occurred (contextual conditioning). Once the association is established, the conditioned stimulus (CS, i.e. tone or context) can induce fear response in a similar manner to unconditioned stimulus (US, i.e. electric shock). However, if CS repeatedly presents without combination of US, extinction occurs in normal animals. Fear extinction is usually regarded as a new inhibitory learning after repeated or prolonged CS presentations without the US, which causes a gradual decrease in the magnitude and/or frequency of the conditioned response (i.e. freezing response in FC test). Deficits in such inhibitory learning can be regarded as a hallmark of clinical PTSD.
Young adult (about 7 weeks of age), male WKY and Wistar rats purchased from Charles River Laboratory were used in this study. Upon receipt, animals were group-housed (2 per cage) and acclimated for at least 7 days. All rats were examined, handled, and weighed prior to initiation of the study to assure adequate health and suitability. During the course of the study, 12/12 light/dark cycles were maintained. The room temperature was maintained between 20 and 23° C. with a relative humidity maintained around 50%. Rats were randomly assigned to each treatment group. All testing was conducted during the animals' light cycle.
When combined with DSC, the combinations were given in a cocktail 30 minute prior to extinction test • D-CPP-ene (5 mg/kg) was be dissolved in acidified saline and administered s.c 30 min prior to extinction test at a dose volume of 2 ml/kg • Lurasidone (Lur, 0.2 mg/kg was dissolved in saline and administered IP 30 min prior to test at a dose volume of 1 ml/kg • Quetiapine (QTP, 10 mg/kg) was dissolved in acidified saline and administered s.c 30 min prior to test at a dose volume of 1 ml/kg
The experiment was conducted in the fear conditioning system manufactured by Coulbourn Instruments (PA, USA). Animal's body movements are captured with a video system and the FreezeFrame software, and freezing is analyzed automatically by the FreezeView software (Coulbourn Instruments, PA, USA).
Fear Conditioning Training: Animals were exposed to 5 CS-US pairings of a 10 sec tone (70 dB conditioned stimulus/CS) co-terminating with a brief electric shock (0.5 mA for 1.0 sec unconditioned stimulus/US). The 5 CS-US pairings are separated by a 60 sec interval with the first CS at 120 s. The rats stage in boxes for one minute after the last shock before being moved out.
Extinction training: Extinction training was conducted twice at 24 and 72 hr post FC training. A cued FC extinction paradigm was applied. The extinction training was conducted in the “cylinder”, a changed context which is different from the boxes of FC training. The extinction training lasted 32-40 min, including 8-10 identical bins. Each bin includes a 2 min tone period followed by a 2 min no-tone period (inter-trial interval, ITI).
Percent freezing during bins 7-8 of extinction trainings (24 hr and 72 hr) was used to evaluate effectiveness of treatment. Data were analyzed by […] analyses of variance (ANOVA), with treatment/group and extinction stage (cues or bins) set as factors. Fisher LSD method was used in Post hoc comparisons if applicable.

[3] = Pharmacokinetics of DCS in rodent, plasma level by UPLC/MS/MS; type: in vivo, C57BL/6J mice
Text: Male C57BL/6J mice (8 weeks old) from Jackson Laboratories (Bar Harbor, Maine) were used. Upon receipt, mice were assigned unique identification numbers (tail marked) and were group housed in OPTImice cages. All animals were acclimated to the colony room for 1 week prior to testing. During the period of acclimation, animals were examined on a regular basis, handled, and weighed to assure adequate health and suitability. Animals were maintained on a 12/12 light/dark cycle. The room temperature was maintained between 20 and 23° C. with a relative humidity maintained between 30% and 70%. Chow and water were provided ad libitum for the duration of the study. All testing was performed during the animal's light cycle phase.
Sample were collected at 30, 60 and 120 min from separate animals. Mean plasma levels across the 30-120 min timepoint was used for analysis. At each time point, trunk blood was collected in tubes containing K2EDTA and kept on ice for short-term storage. Within 15 minutes of blood collection, tubes were centrifuged for 10 minutes at 10,000 RPM in a refrigerated centrifuge. The supernatant (plasma) was extracted and transferred to pre-labeled tubes on dry ice. Samples were stored at approximately −80° C. until analyses.
Analysis of DCS in plasma and brain samples were performed utilizing an UPLC/MS/MS system consisted of an Acquity UPLC chromatographic system and a Quattro Premier XE triple quad mass spectrometer, both from Waters.
The range of standards utilized was 1.0-1000 ng/mL. Plasma samples were prepared in the same manner but with 10 μL of sample and 90 μL of the internal standard mix to provide 100 μL of sample after dilution for triplicate analysis.
The internal standards D9-Ach (parent 154.95DA to fragment 86.7DA) was incorporated into the samples to correct for sample matrix and instrument variability providing a more robust data set.

NMDAR [4] = target: T1, NMDAR (Homo sapiens, UniProt Q05586); details: cited from earlier work
T1 construct: endogenous in cells; host or cells: human subjects in vivo (neuronal receptors); no isolated protein

NMDAR [5] = target: T1, NMDAR; experiment: D-cycloserine plasma concentrations linked to agonist, antagonist and toxic effects; summary of human PK studies; type: in vivo, humans; details: consistent finding of human PK studies
Description: D-cycloserine is an anti-tuberculosis medication that also acts as a partial glycine-site […] (aka mixed agonist/antagonist). […] Plasma concentrations associated with primarily agonist effects are primarily […]. Plasma concentrations associated with antagonist effects are >25 μg/mi. Increased liability for toxicity is observed at plasma levels >35 μg/mL.
Accordingly, the daily dose for producing such plasma levels will necessarily be above 500 mg/day, as described above.

Structure (SMILES): CN1CCN2c3ncccc3Cc3ccccc3C2C1 (racemic) [Mirtazapine]
- Number of marbles buried compared to vehicle (mice; Example 3, mirtazapine 5.5 mg/kg IP 30 min prior to test): significantly reduced the number of marbles buried
- Number of marbles buried compared to vehicle (mice; Example 4, mirtazapine 1, 2.5, 5 and 10 mg/kg IP): significantly reduced the number of marbles buried

Structure (SMILES): N[C@@H]1CON=C1O [D-cycloserine, 3-Isoxazolidinone, 4-amino-, (4R)-(9CI)]
- median sustained plasma level [1]: 8.9 microgram/mL
- mean plasma level [2]: 20. 2 microgram/mL
- Locomotor activity vs. vehicle (C57BL/6J mice; D-cycloserine 30 mg/kg, p=0.5): not significantly affected
- Locomotor activity vs. vehicle (C57BL/6J mice; D-cycloserine 300 mg/kg, p<0.001): significantly increased
- Locomotor activity vs. vehicle (C57BL/6J mice; D-cycloserine 1000 mg/kg, p<0.001): significantly increased
- Locomotor activity, Mean distance travelled over 30 min (C57BL/6J mice; DCS 30 mg/kg IP): 4432.1
- Locomotor activity, Mean distance travelled over 30 min (C57BL/6J mice; DCS 300 mg/kg IP): 7588.5
- Percentage WKY animals showing freezing behavior >85% of the time in response to cue stimuli across day 1 and 3 following fear conditioning, Mean (Wistar-Kyoto (WKY) rats; DCS 30 mg/kg IP 30 min prior to extinction test): 0.281
- Freezing behavior, direction of change vs. vehicle (Wistar-Kyoto (WKY) rats; DCS 30 mg/kg IP): no significant effect on freezing behavior
- Percentage WKY animals showing freezing behavior >85% of the time in response to cue stimuli across day 1 and 3 following fear conditioning, Mean (Wistar-Kyoto (WKY) rats; DCS 300 mg/kg IP 30 min prior to extinction test): 0.113
- Freezing behavior, direction of change vs. vehicle (Wistar-Kyoto (WKY) rats; DCS 300 mg/kg IP, listed as DCS): significant reduction in freezing behavior; also recorded: Decrease
- Effect of high-dose DCS on freezing when added to lurasidone (Wistar-Kyoto (WKY) rats; DCS 300 mg/kg added to lurasidone 0.2 mg/kg, p=0.09): tended to decrease freezing
- Effect of high-dose DCS on freezing in combination with quetiapine (Wistar-Kyoto (WKY) rats; DCS 300 mg/kg with quetiapine 10 mg/kg, p=0.3): without statistical effect
- DCS plasma level ([3]; 30 mg/kg IP, mice, mean across 30-120 min, difference from 25 not significant (p=0.2)): below 25 microgram/mL
- DCS plasma level ([3]; 100 mg/kg and above IP, mice, mean across 30-120 min, p<0.01): > 25 microgram/mL
- DCS plasma level ([3]; 300 mg/kg DCS as in prior examples): > 25 micrograms/mL
- Plasma concentrations associated with antagonist effects (NMDAR [4]; NMDAR glycine site): > 25 μg/mi
- Plasma levels at which increased liability for toxicity is observed (NMDAR [4]; in vivo): > 35000 ng/mL
- Number of marbles buried compared to vehicle (mice; Example 3, D-cycloserine 30 mg/kg IP 30 min prior to test): did not affect this measure
- Number of marbles buried compared to vehicle (mice; Example 3, D-cycloserine 300 mg/kg IP 30 min prior to test): did not affect this measure
- Sustained plasma level following 500 mg administration (NMDAR [5]): below 25 microgram/mL

Structure (SMILES): O=C(O)[C@H]1CN(C/C=C/P(=O)(O)O)CCN1 [DCPPene, D-(E)-4-(3-phosphonoprop-2-enyl)piperazine-2-carboxylic acid]
- Percentage WKY animals showing freezing behavior >85% of the time in response to cue stimuli across day 1 and 3 following fear conditioning, Mean (Wistar-Kyoto (WKY) rats; D-CPP-ene 5 mg/kg s.c. 30 min prior to extinction test): 0.625
- Freezing behavior, direction of change vs. vehicle (Wistar-Kyoto (WKY) rats; D-CPP-ene 5 mg/kg s.c.): Increase
- Freezing behavior, direction of change vs. vehicle (Wistar-Kyoto (WKY) rats; D-CPP-ene 5 mg/kg s.c., listed as D-CPPene): tended to increase freezing behavior

Structure (SMILES): O=C1[C@@H]2[C@H]3CC[C@H](C3)[C@@H]2C(=O)N1C[C@@H]1CCCC[C@H]1CN1CCN(c2nsc3ccccc23)CC1 [Lurasidone]
- Percentage WKY animals showing freezing behavior >85% of the time in response to cue stimuli across day 1 and 3 following fear conditioning, Mean (Wistar-Kyoto (WKY) rats; lurasidone 0.2 mg/kg IP 30 min prior to test): 0.531

Structure (SMILES): Fc1ccc([C@@H]2CCNC[C@H]2COc2ccc3c(c2)OCO3)cc1 [Paroxetine]
- Number of marbles buried compared to vehicle (mice; Example 3, paroxetine 5 mg/kg IP 30 min prior to test): significantly reduced the number of marbles buried
- Number of marbles buried compared to vehicle (mice; Example 4, paroxetine 5 mg/kg IP): significantly reduced the number of marbles buried

Structure (SMILES): OCCOCCN1CCN(C2=Nc3ccccc3Sc3ccccc32)CC1 [QTP, Quetiapine]
- Percentage WKY animals showing freezing behavior >85% of the time in response to cue stimuli across day 1 and 3 following fear conditioning, Mean (Wistar-Kyoto (WKY) rats; quetiapine 10 mg/kg s.c. 30 min prior to test): 0.625
- Freezing behavior, direction of change vs. vehicle (Wistar-Kyoto (WKY) rats; quetiapine 10 mg/kg s.c.): Increase
- Freezing behavior, direction of change vs. vehicle (Wistar-Kyoto (WKY) rats; quetiapine 10 mg/kg s.c., listed as quetiapine): tended to increase freezing behavior

Structure (SMILES): CN1CCN2c3ncccc3Cc3ccccc3[C@@H]2C1 [R-mirtazapine, R-(−)-mirtazapine]
- Effects on marble burying relative to racemic mirtazapine (mice): less robust
- Number of marbles buried compared to vehicle (mice; Example 4, R-mirtazapine 10 mg/kg IP): significantly reduced the number of marbles buried
- Number of marbles buried compared to vehicle (mice; Example 4, R-mirtazapine 1, 2.5 and 5 mg/kg IP): did not affect this measure
- Relative effects of R- and S-isomers of mirtazapine on marble burying (FIG. 2 legend) (mice; R- vs S-isomer): greater effects

Structure (SMILES): CN1CCN2c3ncccc3Cc3ccccc3[C@H]2C1 [S-mirtazapine, S-(+)-mirtazapine]
- Effects on marble burying relative to racemic mirtazapine (mice): significantly more robust
- Number of marbles buried compared to vehicle (mice; Example 4, S-mirtazapine 1, 2.5, 5, 10 mg/kg IP): significantly reduced the number of marbles buried
- Marble burying in the absence and presence of DCS (mice; Example 4, S-mirtazapine with or without DCS): floor level effects

Structure (SMILES): CN[C@H]1CC[C@@H](c2ccc(Cl)c(Cl)c2)c2ccccc21 [Sertraline]
- Percentage WKY animals showing freezing behavior >85% of the time in response to cue stimuli across day 1 and 3 following fear conditioning, Mean (Wistar-Kyoto (WKY) rats; sertraline 20 mg/kg IP 30 min prior to test): 0.156
- Freezing behavior, direction of change vs. vehicle (Wistar-Kyoto (WKY) rats; sertraline 20 mg/kg IP): Decrease
- Freezing behavior, direction of change vs. vehicle (Wistar-Kyoto (WKY) rats; sertraline 20 mg/kg IP, listed as sertraline): significant reduction in freezing behavior
